# Several values for one entry are separate records, joined by “and”; a condition that tells them apart may be missing. Equal entries are not always repeated.
# System: outpatients with probable AD
# Assay: Pharmacogenetic analysis of ADAS-Cog response to rivastigmine by ApoE ε4 carrier status in Phase III trials ENA 713 B351 and ENA 713 B352
# Type: in vivo, human
# Set-up: key to mean of change from baseline in ADAS-Cog score at end of study: change from baseline in ADAS-Cog score points
# Conditions: for response to treatment (non-deterioration, Table 7), share of individuals: rivastigmine greater than or equal to 6 mg; for 4-point improvement in the ADAS-Cog score (number of individuals) / Deterioration in the ADAS-Cog score (number of individuals) / No 4-point improvement in the ADAS-Cog score (number of individuals) / Non-deterioration in the ADAS-Cog score (number of individuals): 26 weeks
# Method: A pharmacogenetic study of the effect of a patients ApoE ε4 genotype on the response to the ChEI, rivastigmine was conducted. Rivastigmine tartrate is an inhibitor of both AChE and BuChE and is commercially available under the name EXELON™ from Novartis Pharmaceuticals Corporation, East Hanover, N.J. Individuals In the trial were divided into treatment groups depending on the dose they received, namely <6 mg/day of rivastigmine, 6-12 mg/day of rivastigmine and placebo. Each treatment group was analyzed separately. Individuals in each treatment group were then classified as ApoE ε4 carriers or non-carriers based on the genotype data. A significant association (P=0.0071) between the ApoE ε4 carriers and the greater than 4 point improvement was found in the 6-12 mg group. In contrast, the association of the ApoE ε4 allele with non-deterioration in the study was not significant (P=0.1172) in the same group.
# The Phase III clinical trials ENA 713 B352 and ENA 713 B351 are multicenter, double-blind, placebo-controlled, parallel-group study to examine the effect of rivastigmine in outpatients with probable AD. Both trials are conducted over a period of 26 weeks. ENA 713 B351 has 4 treatment arms with comprising of rivastigmine 3 mg/day, rivastigmine 6 mg/day, rivastigmine 9 mg/day or placebo. The initial dose-titration phase (Weeks 1-12) was followed by a fixed-dose phase (Week 13-26), for a total randomized double-blind treatment period of 26 weeks. ENA 713 B352 has 3 treatment arms with comprising of rivastigmine 1-4 mg/day, rivastigmine 6-12 mg/day, and placebo. The initial dose-titration phase (Weeks 1-7) was followed by a fixed-dose phase (Week 8-26), for a total randomized, double-blind treatment period of 26 weeks. The blood samples were handled by the Roskamp Institute, University of South Florida.
# Individuals in the trial were classified as being responders if the final change from their baseline ADAS-COG scores is less than or equal to 4-points. A Fisher's Exact test was used to find an association between ApoE genotype and response.
# Individuals in the trial were classified as being responders if the final change from their baseline ADAS-Cog scores is less than or equal to 0 points. A Fisher's Exact test was used to find an association between ApoE genotype and response.
# Treatment differences in the ApoE ε4 and non-ApoE ε4 carriers were also analyzed. Treatment differences being measured as the 4-point decrease and the non-deterioration classes. An exact Cochran-Armitage test for trend is used to determine if the numbers of responders increase with dose of rivastigmine among each genotype group.
# The trial population was divided into three groups based on the treatment they received. The three groups are placebo, rivastigmine <6 mg/day and rivastigmine ≧6 mg/day. All analyses were conducted within each group separately. The genotype data for the ApoE were re-coded for the presence or absence of the […]. The re-coded genotype data were used as the categorical variable.
# A non-parametric analysis of variance (ANOVA) model was used for the analysis. Change from baseline in the ADAS-Cog score is used as the dependent variable.
# [1] = rivastigmine <6 mg/day, No ε4 allele
# [2] = rivastigmine <6 mg/day, ε4 allele carriers
# [3] = rivastigmine ≧6 mg/day, No ε4 allele
# [4] = rivastigmine ≧6 mg/day, No ε4 allele, listed as Rivastigmine
# [5] = rivastigmine ≧6 mg/day, ε4 allele carriers
smiles,measurement,setting,value
CCN(C)C(=O)Oc1cccc([C@H](C)N(C)C)c1 [rivastigmine],"response to treatment (non-deterioration, Table 7), share of individuals",ApoE ε4 carriers,65%
same,mean of change from baseline in ADAS-Cog score at end of study,"Rivastigmine <6 mg/day, No ε4 allele",1.444
same,mean of change from baseline in ADAS-Cog score at end of study,"Rivastigmine <6 mg/day, ε4 allele",1.293
same,mean of change from baseline in ADAS-Cog score at end of study,"Rivastigmine ≧6 mg/day, No ε4 allele, listed as Rivastigmine",0.39
same,mean of change from baseline in ADAS-Cog score at end of study,"Rivastigmine ≧6 mg/day, ε4 allele",−1.74
same,"response to treatment (non-deterioration, Table 7), share of individuals",non-ApoE ε4 carriers,48.7%
same,4-point improvement in the ADAS-Cog score (number of individuals),[1],4
same,Deterioration in the ADAS-Cog score (number of individuals),[1],24
same,No 4-point improvement in the ADAS-Cog score (number of individuals),[1],32
same,Non-deterioration in the ADAS-Cog score (number of individuals),[1],12
same,No 4-point improvement in the ADAS-Cog score (number of individuals),"rivastigmine <6 mg/day, No ε4 allele, listed as Rivastigmine",37
same,4-point improvement in the ADAS-Cog score (number of individuals),[2],12
same,Deterioration in the ADAS-Cog score (number of individuals),[2],63
same,No 4-point improvement in the ADAS-Cog score (number of individuals),[2],83
same,Non-deterioration in the ADAS-Cog score (number of individuals),[2],32 and 12
same,4-point improvement in the ADAS-Cog score (number of individuals),[3],4
same,Deterioration in the ADAS-Cog score (number of individuals),[3],21
same,No 4-point improvement in the ADAS-Cog score (number of individuals),[3],37
same,Non-deterioration in the ADAS-Cog score (number of individuals),[3],20
same,4-point improvement in the ADAS-Cog score (number of individuals),[4],26
same,No 4-point improvement in the ADAS-Cog score (number of individuals),[4],54
same,4-point improvement in the ADAS-Cog score (number of individuals),[5],26
same,Deterioration in the ADAS-Cog score (number of individuals),[5],28
same,No 4-point improvement in the ADAS-Cog score (number of individuals),[5],54
same,Non-deterioration in the ADAS-Cog score (number of individuals),[5],52

# From patent US20080214662A1, “METHODS FOR THE TREATMENT OF DEMENTIA BASED ON APO E GENOTYPE” (priority 2002, published 2008)
